Series [1] can be described thus: Metabolite identification of Compound 18 in human plasma. Format: in vitro ADME. Details: key to Detection in incubation: +: Detected; ND: Not detected. To be noted: for Detection in incubation: Compound 18 (10 μM), human plasma. The method, then: Metabolite Identification: Compound 18 (10 μM) was incubated with human plasma (29.0 mg protein/incubation) in incubation mixtures (200 μL final incubation volume) that consisted of 50/50v/v neat plasma (undiluted)/substrate solution in 50 mM phosphate buffer, pH 7.4). The plasma was obtained from male and female donors and contained K2EDTA anticoagulant. Reactions were started by addition of the substrate solution to human plasma and were stopped at four designated time points (0, 30, 60 and 90 min) by the addition of 600 μL of stop reagent (acetonitrile). Stopped incubation samples were centrifuged (e.g., 10,000×g for 10 min at 10° C.) and the supernatant fractions were analyzed by LC-MS/MS to characterize the metabolites formed from compound 18. Additional incubations were performed with the positive control procaine (5 μM) to establish competency of the test system. Samples were analyzed by LC-MS/MS.

A short description of series [2]: One-month toxicological evaluation with weekly dosing in rat. Format: in vivo, Sprague Dawley rat. To be noted: weekly dosing 0.05, 0.5 and 2 mg/kg, one-month study. The method, then: (§1) Serum ALT and AST levels: Samples were analyzed using a Modular Analytics analyzer.
(§2) Next, tolerability and safety of the compound 18-based LNPs in vivo was tested. A full toxicological evaluation of compound 18-based LNPs in both Sprague Dawley rat and cynomolgus monkey was performed using a standard one-month study with weekly dosing at three dose levels in each species. Rats were dosed at 0.05, 0.5, and 2 mg/kg and a non-human primates was dosed at 0.1, 0.3, and 1 mg/kg. LNP-related toxicities associated with MC3-based LNP systems are generally associated with immunological (cytokine and complement activation) and hepatic injury. […] FIGS. 32 and 33 highlight the day 30 levels of alanine transferase (ALT, FIG. 32A) and aspartate aminotransferase (AST, FIG. 32B), two indicators of liver damage.

A short description of series [3]: One month toxicology evaluation in non-human primate: serum ALT and AST. Format: in vivo. To be noted: cynomolgus monkeys, 1 mg/kg mRNA, intravenously by 60 min infusion, dosed weekly, 24 post fifth dose; PBS pre-dose vs day 30 levels. The method, then:
FIGS. 32A-32C are a series of graphs summarizing the results of a one month toxicology evaluation in rat and non-human primate. PBS (phosphate buffered saline) was used as a control. […] The serum levels were measured 24 post fifth dose (n=4). […] The serum levels were measured 24 post fifth dose (n=4).

Series [4] is described as follows: Tolerability of Compound 18 formulation in non-human primates, single dose. Format: in vivo. The method, then:
The tolerability and efficacy of nanoparticle compositions to non-human primates was also investigated using a sample formulation including Compound 18. The formulation was prepared according to the standard MC3 formulation described above and included an hEPO mRNA. Primates were administered a single dose of 0.05 (Group 1), 0.3 (Group 2), or 1.0 (Group 3) mpk via intravenous infusion for 60 minutes. Three primates were administered each dose. Expression of hEPO was measured prior to dosing and at 2, 6, 24, 48, and 96 hours post-treatment (Table 26). Table 28 includes levels of indicators of complement activation, while Table 29 includes cytokine induction data.
In general, lower doses were better tolerated. High doses induced body temperature elevation and hunched posture, which is similar to the behavior observed for primates administered higher doses of MC3 formulations.

The next series relates to human hepatocytes. The series can be described thus: Metabolite profiling of Compound 18 with human hepatocytes. Format: in vitro ADME. Details: key to Detection in incubation: +: Detected; ND: Not detected. To be noted: Compound 18 (10 μM), human hepatocytes. The method, then:
The results of metabolic profiling and characterization for compound 18 incubated with human hepatocytes or human plasma are summarized in Tables 41 and 42, respectively.

The nature of series [5]: Tissue distribution and liver tissue clearance of lipid after weekly intravenous doses to CD-1 mice. Format: in vivo. To be noted: liver tissue, 0.25 mg/kg mRNA, weekly dosing. The source says: FIGS. 30A-30C are a series of graphs showing the pharmacokinetic and expression profile of Compound 18 after multiple doses. FIG. […]
FIGS. 35A and 35B are a pair of graphs comparing the tissue distribution of MC3 and compound 18.

Series [6] is described as follows: One-month toxicological evaluation with weekly dosing in cynomolgus monkey. Format: in vivo. The method, then: as §1
Serum C5b9 levels: C5b9 sample analysis was performed using an ELISA method. The kit used was Human C5b-9 ELISA Set and Reagent Set B from BD Bioscience. Study samples were analyzed in singlicate diluted 1/100.
bDNA for measurement of mRNA levels: mRNA sample analysis (bDNA method) was performed using the QuantiGene® 2.0 Reagent System kit from Affymetrix. Study samples were lysed prior to analysis using the QuantiGene Sample Processing Kit (Blood samples). Study samples were analyzed in duplicate diluted between 1/100 and 1/1250000.
as §2

Series [7] can be described thus: One month toxicology evaluation: C5b9 and MCP-1 serum concentration in cynomolgus monkeys. Format: in vivo. To be noted: 1 mg/kg mRNA, day 1 and day 29, vs PBS. The source says: FIGS. 33A and 33B are a pair of graphs summarizing the results of a one month toxicology evaluation in rats and non-human primates.
For series [8] the following is noted: rat, MC3-based mRNA containing LNP, 0.3 mg/kg dose mRNA; cited from earlier work.
Series [9] can be described thus: MC3 single cell necrosis in rat liver and liver enzymes. Format: in vivo, rats. To be noted: rat liver. The method, then:
FIG. 37 is a series of graphs illustrating MC3 single cell necrosis in rat liver and liver enzyme. The top row is a pair of images of livers of rats administered with 0.3 mg/kg of a […] (LNP) not containing an mRNA (right) and PBS (phosphate buffered saline) as a control (left). The bottom row is a pair of graphs showing expression of ALT (left) and AST(right) in the liver following administration of a 0.3 mg/kg of a MC3-based LNP containing an mRNA.

The subject of the next series is hEPO mRNA. The series can be described thus: Pretreatment study in Cynomolgus monkeys (standard MC3 formulation, hEPO mRNA). Format: in vivo. To be noted: once weekly for four weeks, absence of any pretreatment. The method, then:
The effects of pretreatment to non-human primates were evaluated using a standard MC3 formulation including an mRNA encoding hEPO. Male monkeys were administered the nanoparticle composition once weekly for four weeks at a dose rate of 5 ml/kg/h and were pretreated with either methotrexate or dexamethasone.
As shown, in the absence of any pretreatment, maximal expression levels decreased nearly 70% over the course of the study.

Where [10] appears, read: single dose 0.05, 0.3 or 1.0 mpk, i.v. infusion 60 minutes.
Where [11] appears, read: 0.3 mg/kg of MC3-based LNP containing an mRNA.

Regarding `CCCCCCCCCOC(=O)CCCCCCCN(CCO)CCCCCCCC(=O)OC(CCCCCCCC)CCCCCCCC` [Compound 18, Heptadecan-9-yl 8-((2-hydroxyethyl)(8-(nonyloxy)-8-oxooctyl)amino)octanoate], the Detection in incubation entry (in [1] (0 min); in series [1] (30 min); in series [1] (60 min); in series [1] (90 min); with human hepatocytes (0 min); in the series on human hepatocytes (60 min)) was “+” each time. In addition, the Detection in incubation entry with human hepatocytes (120 min) and in the series with human hepatocytes (240 min) was “+” in each case. Moreover, the “initial step of metabolism” value in series [1] (in vitro metabolite identification studies) is reported as “primary ester hydrolysis to compound 166”. In [2], the adverse findings result is “no adverse findings”. Also, the “serum alanine aminotransferase levels” value in series [3] was “No statistical difference”. The “serum aspartate aminotransferase levels” value in series [3] was “No statistical difference”. In addition, the reticulocyte counts entry in [4] (all groups, Day 5) was “marked increase”. For the same compound, the “tolerability of the formulation” value in [4] (non-human primates, single dose) is given as “tolerated similarly to the MC3 formulation”. For the same compound, the “Complement activation and cytokine release (IL-6 and MCP-1)” value in series [4] (single dose 0.05, 0.3 or 1.0 mpk) is “dose-related and reversible”. In addition, in series [4] (setting [10]), the “Alanine aminotransferase (ALT) levels” value is reported as “did not increase”. Moreover, the “Aspartate aminotransferase (AST)” value in series [4] (setting [10]) is “increased in the high dose group on Day 2 and returned to baseline by Day 5”. Besides, in [5], the primary metabolite result is on record as “compound 166”. The “ALT and AST levels” value in series [6] (1 mg/kg dose, day 30) is “at the same level as the control”. Also, the C5b9 levels entry in series [6] (after dose 1 or dose 5) is “no significant change”. The C5b9 serum concentration result in series [7] (all timepoints) is recorded as “No statistical difference”. In addition, in [7] (any timepoint other than the one marked *p<0.05), the MCP-1 serum concentration entry is listed as “no statistical difference”.

With `CCCCC/C=C\C/C=C\CCCCCCCCC(CCCCCCCC/C=C\C/C=C\CCCCC)OC(=O)CCCN(C)C` [MC3, DLin-MC3-DMA, reference compound], the “ALT, AST and pathology” value in series [8] is “ALT and AST were elevated and pathology showed evidence of necrosis”. In addition, the pathology result in series [9] (0.3 mg/kg MC3-based LNP) is “evidence of necrosis”. Moreover, in series [9] (setting [11]), the ALT result was “elevated” and the AST result is “elevated”. Also, the “decrease of maximal expression levels over the course of the study” value in the series with hEPO mRNA is recorded as around 70%.

The record behind these values is patent US12263248B2, “Compounds and compositions for intracellular delivery of therapeutic agents” (ModernaTX, Inc., priority 2018, dated 2025).
